Reference: patent US11925645B2, “Enhanced caffeinated beverage composition” (Ortho-Nutra, LLC, priority 2013, dated 2024)
Read-outs that look alike come from different tables or passages of the source.

Columns and labels:
[1] = tested on: biomarkers of inflammation; assay: Biomarkers of inflammation in humans; type: in vivo, human; details: acute inflammatory stressors or chronic consumption
Source text: Theacrine itself can reduce biomarkers of inflammation in humans in response to acute inflammatory stressors (e.g., intense exercise) or chronic consumption. Theacrine is shown to decrease C-reactive protein (CRP), Erythrocyte sedimentation rate (ESR), interleukin-6 (IL-6) and TNF-alpha.

[2] = cited from earlier work
[3] = Fourteen day study of repetitive dosing of theacrine and caffeine: psychometric indices; type: in vivo, human
[4] = Acute TeaCrine crossover trial: hemodynamics and side effect profiles; type: in vivo, human
Procedure: Anchored VAS questionnaires were used to detect changes in various aspects of physical and mental energy and performance; side effect profiles, hemodynamics and biochemical markers of safety were also collected over a 3-hr post-dosing period. A subset of 6 subjects underwent a separate 7-day, open-label, repeated dose study comparing 100 mg, 200 mg and 400 mg of TC.
Physical activity levels and health history were determined using standardized questionnaires. Heart rate and blood pressure were measured using an Omron HEM-780. Standing height was determined using a wall-mounted stadiometer. […] Medical Scale. A 100 mm anchored VAS questionnaire for energy, fatigue, and concentration was distributed at each acute lab session; additional VAS questionnaires were distributed for the daily assessment over a 6-hour period during the 7-day subset study. Quest Diagnostics (Pittsburgh, Pa.) was utilized to transport and analyze all blood samples. For each laboratory session, subjects reported to the lab well hydrated, 10-12 hours postprandial, and at least 24-hours after their last exercise session.
Statistical Analyses for Example 1. Descriptive statistics (mean, median, SD, 95% CIs) were used to quantify subjects physical characteristics. […] Effect sizes were also calculated. […]

[5] = Single dose theacrine, caffeine or combination: subjective feelings on 10 cm visual analog scale; type: in vivo, human
Procedure: Subjects rated their subjective feelings using a 10 cm visual analog scale at 30 minutes, 1, 2, 3, 4, and 5 hours post ingestion and performed the trail making test (TMT) of cognitive performance at baseline and at hours 2 and 4 post ingestion.

A1 and A2A AR = details: rats; cited from earlier work
[6] = Theacrine-caffeine interaction study: single oral dose plasma pharmacokinetics (LC-MS/MS, noncompartmental); type: in vivo, human; details: for Vd/F: read-out: Vd/F; for MRT: read-out: MRT; for half-life: read-out: t1/2 (converted)
Source text: Theacrine pharmacokinetics in humans has not been systematically characterized. Therefore, one purpose of this study, among others, was to determine theacrine pharmacokinetics and dose-linearity following oral administration in humans.
Eight healthy nonsmokers, including 4 men and 4 women, were recruited for the experiment.
Study Design and Procedures. […] Theacrine, administered as iTeaCrine.®, was provided by Compound Solutions (Carlsbad, Calif). […] Treatment sequence was randomized using a 4×4 Latin square. There was an approximate 1-week washout period between treatments for all subjects.
Test Visit Procedures. […] A catheter was inserted into the forearm vein for blood sampling. Duplicate measurements of resting heart rate and blood pressure were taken pre-dose and prior to each timed blood sample. In addition, respiratory rate was counted in one minute and body temperature was measured using an ear scanning thermometer (dual readings taken at each time).
All subjects were instructed to consume their usual diet throughout the study period, with the exception of the actual days of testing. During the two days prior to each test day, subjects recorded all food and drink consumed and attempted to mimic this intake for the two-day period prior to subsequent visits. Diet records were analyzed using nutrient analysis software (Food Processor SQL, version 9.9; ESHA Research, Salem, Oreg.). For the actual test days, standardized meals (meal replacement food bars [Clif “Builder's 20 g Protein Bar”] and ready-to-drink shakes [Orgain Organic Nutrition™]) were provided to the subjects after sample collection at hour 2 and hour 6 (one shake and one-half bar at each time). Subjects were also provided with adequate meal replacement bars and shakes to consume following the 8 hour sample collection. (during their time outside the lab). Each bar contained 280 calories, 10 grams of fat, 29 grams of carbohydrate, and 20 grams of protein. Each shake contained 250 calories, 7 grams of fat, 32 grams of carbohydrate, and 16 grams of protein. No food other than what was provided to the subjects was allowed during each study day, including both time spent in the lab and outside the lab. […] The subjects returned the following morning for the 24 hour blood collection, again in a 10 hour fasted state. The same volume of meal replacement bars or shakes was consumed by each subject during each visit (both in lab and outside lab).
Pharmacokinetic Study. Plasma concentration-time data were evaluated using noncompartmental methods in Phoenix WinNonlin (version 7.0; Pharsight Corporation, Mountain View, Calif) with adjustment for lag time after oral administration. The maximum concentration (Cmax), lag time (talag), and time of maximum concentration (tmax) were determined from the plasma concentration versus time data. The area under the plasma concentration-time curve from time 0 to infinity (was calculated using the trapezoidal rule extrapolated to time infinity). […] The oral clearance (CL/F) was calculated by dividing the oral dose by AUC0-∞. The apparent volume of distribution during the terminal elimination phase (Vz/F) was calculated by dividing CL/F by k. […]

[7] = both sexes, human, plasma, po, 125 mg
[8] = theacrine 125 mg + caffeine 150 mg versus theacrine 125 mg
[9] = theacrine with caffeine co-administration versus theacrine alone

Question: Which results are given for `Cn1c(=O)c2c(n(C)c1=O)n(C)c(=O)n2C` [Theacrine, 1,3,7,9-tetramethylpurine-2,6,8-trione]?
Answer: C-reactive protein (CRP) [1]: decrease; Erythrocyte sedimentation rate (ESR) [1]: decrease; TNF-alpha [1]: decrease; interleukin-6 (IL-6) [1]: decrease; sensitization or pharmacodynamic tolerance ([2]; repeat dose theacrine studies): absence of either sensitization or pharmacodynamic tolerance; safety, adverse effects on hemodynamic parameters ([2]; theacrine supplementation up to 400 mg/day for 8 weeks): appears to be safe; anxiety [3]: decreased anxiety; psychometric indices of energy, focus, concentration, motivation and mood [3]: still maintained elevated; changes in systemic hemodynamics or side effect profiles ([4]; 200 mg dose of TC, 3-hr post-dosing period): No changes; systemic hemodynamics: systolic and diastolic blood pressure (FIGS. 4 and 5) ([4]; various time intervals after administration): no substantial change; time post-ingestion at which increase in subjective focus reached statistical significance ([5]; 125 mg theacrine treatment): 3 h; safety and improvement of subjective feelings related to energy ([5]; alone at 125 mg or in combination with caffeine): safe and effective; theacrine stimulating activity under a cocktail containing both A1 and A2A AR antagonists (A1 and A2A AR): blocks; Vd/F ([6]; both sexes, human, plasma, oral, theacrine, Condition 4: Theacrine 125 mg + Caffeine 150 mg, mean ± SD): 35.4 L; dose-adjusted Cmax ([6]; both sexes, human, plasma, po, 25 mg, Cmax, theacrine in plasma, Condition 1: Theacrine 25 mg single oral dose, dose-adjusted, mean ± SD): 34.1 ± 38.9 ng/mL/mg; Vd/F ([6]; both sexes, human, plasma, po, 25 mg, theacrine, Condition 1: Theacrine 25 mg single oral dose, mean ± SD): 48.1 ± 23.4 L; Tmax [6, 7]: 1.8 h; dose-adjusted Cmax ([6]; both sexes, human, plasma, po, 125 mg, Cmax, theacrine in plasma, Condition 2: Theacrine 125 mg single oral dose, dose-adjusted, mean ± SD): 25.6 ± 5.5 ng/mL/mg; Vd/F ([6]; both sexes, human, plasma, po, 125 mg, theacrine, Condition 2: Theacrine 125 mg single oral dose, mean ± SD): 50.5 ± 0.49 L; MRT [6, 7]: 36.8 ± 18.9 h; half-life [6, 7]: 26.1 ± 13.7 h; dose-adjusted Cmax ([6]; both sexes, human, plasma, po, Cmax, theacrine in plasma, Condition 4: Theacrine 125 mg + Caffeine 150 mg single oral dose, dose-adjusted, mean ± SD): 38.6 ± 16.6 ng/mL/mg; MRT ([6]; both sexes, human, plasma, theacrine, Condition 1: Theacrine 25 mg single oral dose, mean ± SD): 24.9 ± 3.5 h; half-life ([6]; both sexes, human, theacrine in plasma, Condition 1: Theacrine 25 mg single oral dose, mean ± SD): 16.5 ± 2.4 h; Tmax ([6]; both sexes, human, theacrine in plasma, Condition 1: Theacrine 25 mg single oral dose, median (range)): 1.8 h; time to reach maximal concentration ([6]; oral administration of theacrine alone): ≤ 2 h; decrease of theacrine oral clearance (CL/F) by caffeine [6, 8]: approximately 30%; decrease of theacrine oral volume of distribution (Vd/F) by caffeine [6, 8]: approximately 30%; theacrine absorption rate (Tmax) and half-life (t1/2) under caffeine co-administration ([6]; theacrine 125 mg + caffeine 150 mg versus theacrine alone): unaffected; absorption following oral administration ([6]; theacrine alone): well absorbed; dose-adjusted theacrine pharmacokinetic parameters, 25 mg versus 125 mg ([6]; theacrine alone): not significantly different; AUC ([6]; theacrine in plasma, Condition 1: Theacrine 25 mg single oral dose, dose-adjusted, mean ± SD): 809 ± 923 ng·h/mL/mg; AUC ([6]; theacrine in plasma, Condition 2: Theacrine 125 mg single oral dose, dose-adjusted, mean ± SD): 736 ± 312 ng·h/mL/mg; dose-adjusted Cmax ([6]; theacrine in plasma, Condition 4: Theacrine 125 mg + Caffeine 150 mg single oral dose, dose-adjusted, mean ± SD): 37.7 ± 16.5 ng/mL/mg; AUC ([6]; theacrine in plasma, Condition 4: Theacrine 125 mg + Caffeine 150 mg, dose-adjusted, mean ± SD): 1,242 ± 1,129 hr * ng/mL/mg; geometric mean ratio of AUC [6, 9]: 1.1 ±0.03; geometric mean ratio of Cmax [6, 9]: 1.1 ±0.06; CL/F ([6]; theacrine, Condition 1: Theacrine 25 mg single oral dose, mean ± SD): 2.0 ± 0.9 L/h; CL/F ([6]; theacrine, Condition 2: Theacrine 125 mg single oral dose, mean ± SD): 1.6 ± 0.5 L/h; CL/F ([6]; theacrine, Condition 2: Theacrine 125 mg single oral dose, mean ± SD, listed as theacrine): 1.6 ± 0.49 L/h; CL/F ([6]; theacrine, Condition 4: Theacrine 125 mg + Caffeine 150 mg, mean ± SD): 1.2 ± 0.6 L/h; CL/F ([6]; theacrine, Condition 4: Theacrine 125 mg + Caffeine 150 mg, mean ± SD, listed as theacrine): 1.2 L/h; AUC ([6]; theacrine, theacrine 125 mg alone): 740 ± 310 ng·h/mL/mg; AUC ([6]; theacrine, with caffeine co-administration (theacrine 125 mg + caffeine 150 mg)): 1200 ± 1100 ng·h/mL/mg
